molecular target: human ACC2 (Homo sapiens (Human), UniProt O00763); test: ACC2 assay (spectrophotometric 384 well assay, NADH-linked kinetic method); assay type: biochemical; conditions: hACC2 construct lacking the 128 N-terminal amino acids; 25° C., 340 nm over 15 minutes
Description: Spectrophotometric 384 Well Assay
Malonyl CoA formation by acetyl CoA carboxylases is stoichometrically linked to the consumption of ATP. ACC2 activity is measured in a NADH-linked kinetic method measuring ADP generated during the ACC reaction using a coupled lactate dehydrogenase/pyruvate kinase reaction.
The protein is then expressed in insect cells using a baculoviral expression system. Protein purification is performed by anion exchange.
All compounds are dissolved in dimethyl sulfoxide (DMSO) to a concentration of 10 mM.
The enzymatic reaction is then started by addition of a mixture of NADH, acetyl
Coenzyme A (both […].) and ATP (500 uM f.c.). The decrease of the optical density (slope S) is then determined at 25° C. at a wavelength of 340 nm over 15 minutes in a spectrophotometric reader.
Each assay microtiter plate contains wells with vehicle instead of compound as controls for the non-inhibited enzyme (100% CTL; ‘HIGH’) and wells without acetyl-CoA as controls for non-specific NADH degradation (0% CTL; ‘LOW’).

human ACC2, sequence (O00763 129-2458): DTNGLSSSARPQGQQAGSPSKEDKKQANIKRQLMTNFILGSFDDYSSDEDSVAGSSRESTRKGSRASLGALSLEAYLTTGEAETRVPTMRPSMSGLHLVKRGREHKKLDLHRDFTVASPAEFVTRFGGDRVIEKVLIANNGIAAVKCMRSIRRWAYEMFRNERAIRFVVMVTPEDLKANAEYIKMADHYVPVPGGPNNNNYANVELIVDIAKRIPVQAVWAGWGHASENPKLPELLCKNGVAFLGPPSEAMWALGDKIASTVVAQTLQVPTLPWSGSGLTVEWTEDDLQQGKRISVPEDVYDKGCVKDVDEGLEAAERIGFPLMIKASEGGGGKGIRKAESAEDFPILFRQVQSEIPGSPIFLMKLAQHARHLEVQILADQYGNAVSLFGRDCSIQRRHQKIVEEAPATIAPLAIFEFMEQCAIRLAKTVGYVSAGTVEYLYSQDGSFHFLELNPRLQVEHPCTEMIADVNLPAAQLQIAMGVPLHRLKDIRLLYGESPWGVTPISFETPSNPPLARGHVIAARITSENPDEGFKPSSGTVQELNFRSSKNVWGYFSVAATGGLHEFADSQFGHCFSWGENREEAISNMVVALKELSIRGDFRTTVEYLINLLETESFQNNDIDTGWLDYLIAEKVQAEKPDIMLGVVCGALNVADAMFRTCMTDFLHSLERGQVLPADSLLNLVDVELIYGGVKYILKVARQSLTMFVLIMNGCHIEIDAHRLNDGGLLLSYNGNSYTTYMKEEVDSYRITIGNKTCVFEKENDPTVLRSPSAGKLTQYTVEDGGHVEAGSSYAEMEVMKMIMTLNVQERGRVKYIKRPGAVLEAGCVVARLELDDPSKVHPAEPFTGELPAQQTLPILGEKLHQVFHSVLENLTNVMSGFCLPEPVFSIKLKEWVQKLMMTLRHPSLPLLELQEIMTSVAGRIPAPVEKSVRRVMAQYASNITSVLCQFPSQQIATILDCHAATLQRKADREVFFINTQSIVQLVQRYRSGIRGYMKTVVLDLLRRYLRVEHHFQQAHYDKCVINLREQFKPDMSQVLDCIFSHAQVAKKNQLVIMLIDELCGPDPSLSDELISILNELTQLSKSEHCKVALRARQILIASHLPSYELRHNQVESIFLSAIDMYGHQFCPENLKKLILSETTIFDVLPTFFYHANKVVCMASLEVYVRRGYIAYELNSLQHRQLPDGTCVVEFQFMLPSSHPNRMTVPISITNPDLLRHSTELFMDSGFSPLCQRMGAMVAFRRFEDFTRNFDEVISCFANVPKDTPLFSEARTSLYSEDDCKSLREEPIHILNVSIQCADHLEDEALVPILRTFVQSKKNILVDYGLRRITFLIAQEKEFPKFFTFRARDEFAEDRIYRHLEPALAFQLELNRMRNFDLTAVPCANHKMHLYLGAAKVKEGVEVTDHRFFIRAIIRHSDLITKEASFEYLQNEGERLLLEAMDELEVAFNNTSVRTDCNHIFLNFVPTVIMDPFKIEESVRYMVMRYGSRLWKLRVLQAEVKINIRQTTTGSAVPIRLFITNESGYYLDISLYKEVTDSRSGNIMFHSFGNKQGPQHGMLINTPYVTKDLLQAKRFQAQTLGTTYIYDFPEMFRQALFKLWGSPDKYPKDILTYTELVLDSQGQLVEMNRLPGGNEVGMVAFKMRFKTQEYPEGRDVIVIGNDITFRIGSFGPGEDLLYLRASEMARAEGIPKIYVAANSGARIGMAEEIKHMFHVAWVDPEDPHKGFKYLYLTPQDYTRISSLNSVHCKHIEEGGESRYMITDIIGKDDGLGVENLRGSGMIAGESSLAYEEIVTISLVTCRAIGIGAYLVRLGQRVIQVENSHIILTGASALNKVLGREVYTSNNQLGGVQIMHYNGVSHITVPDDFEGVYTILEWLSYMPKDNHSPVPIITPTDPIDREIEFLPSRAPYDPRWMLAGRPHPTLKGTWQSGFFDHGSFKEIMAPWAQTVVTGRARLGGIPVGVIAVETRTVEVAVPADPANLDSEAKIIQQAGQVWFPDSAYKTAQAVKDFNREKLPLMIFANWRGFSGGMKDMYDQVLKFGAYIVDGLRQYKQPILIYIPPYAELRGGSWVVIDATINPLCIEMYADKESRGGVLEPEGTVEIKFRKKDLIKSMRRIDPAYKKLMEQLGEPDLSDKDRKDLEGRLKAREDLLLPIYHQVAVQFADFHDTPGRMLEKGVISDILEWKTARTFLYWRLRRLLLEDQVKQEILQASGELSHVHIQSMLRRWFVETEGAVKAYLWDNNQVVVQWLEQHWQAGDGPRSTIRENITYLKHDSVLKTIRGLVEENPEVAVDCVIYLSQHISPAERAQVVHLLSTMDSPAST

Row | SMILES | IC50 [nM]
1 | CCCNc1nccc(N2CC[C@@H](Oc3ccc(C(C)C(=O)NC4COC4)cc3)C2)c1F (some centres unmarked) [Example 1.61] | 626
2 | CC(C(=O)NCC(F)(F)F)c1ccc(O[C@@H]2CCN(c3ccc(OCC4CC4(F)F)cn3)C2)cc1 (some centres unmarked) [Example 1.62] | 637
3 | CC(C)NC(=O)C(C)c1ccc(O[C@@H]2CCN(c3ccc(OCC4CC4(F)F)cn3)C2)cc1 (some centres unmarked) [Example 1.63] | 652
4 | CCCNC(=O)C(C)c1ccc(O[C@@H]2CCN(c3nc(N(C)C)ncc3F)C2)cc1 (some centres unmarked) [Example 1.65] | 667
5 | CC(C(=O)NC1COC1)c1ccc(O[C@@H]2CCN(c3ccc(OCC4CC4(F)F)cn3)C2)cc1 (some centres unmarked) [Example 1.67] | 706
6 | CC(C(=O)NC1COC1)c1ccc(O[C@@H]2CCN(c3nc(N(C)C)ncc3F)C2)cc1 (some centres unmarked) [Example 1.68] | 724
7 | CC(C(=O)NCC(F)(F)F)c1ccc(O[C@@H]2CCN(c3nc(N(C)C)ncc3F)C2)cc1 (some centres unmarked) [Example 1.69] | 748
8 | CCCNc1nccc(N2CC[C@@H](Oc3ccc(C(C)C(=O)NC(C)CO)cc3)C2)c1F (some centres unmarked) [Example 1.72] | 789
9 | CCN(C)C(=O)C(C)c1ccc(O[C@@H]2CCN(c3ccc(OCC4CC4(F)F)cn3)C2)cc1 (some centres unmarked) [Example 1.73] | 798
10 | CC(C(=O)NC1CCC1)c1ccc(O[C@@H]2CCN(c3ccc(OCC4CC4(F)F)cn3)C2)cc1 (some centres unmarked) [Example 1.82] | 940
11 | CC(C(=O)NCC1CC1)c1ccc(O[C@@H]2CCN(c3ncnc(OCC(C)(C)O)c3Cl)C2)cc1 (some centres unmarked) [Example 1.83] | 1070
12 | CC(CC#N)NC(=O)C(C)c1ccc(O[C@@H]2CCN(c3ccc(OCC4CC4(F)F)cn3)C2)cc1 (some centres unmarked) [Example 1.84] | 1120
13 | CC(=O)Nc1nc(CNC(=O)C(C)c2ccc(O[C@@H]3CCN(c4ncnc(OCC(C)(F)F)c4F)C3)cc2)cs1 (some centres unmarked) [Example 1.87] | 1380
14 | CC(C(=O)NC[C@@H](C)O)c1ccc(O[C@@H]2CCN(c3ccc(OCC4CC4(F)F)cn3)C2)cc1 (some centres unmarked) [Example 1.88] | 1780
15 | CC(C(=O)N1CC(F)C1)c1ccc(O[C@@H]2CCN(c3nc(N(C)C)ncc3F)C2)cc1 (some centres unmarked) [Example 1.93] | 5480
16 | CCNC(=O)C(C)c1ccc(O[C@@H]2CCN(c3ccnc(N(C)CC)n3)C2)cc1 (some centres unmarked) [Example 2.2] | 179
17 | CCCN(C)c1nccc(N2CC[C@@H](Oc3ccc(C(C)C(=O)NCC)cc3)C2)n1 (some centres unmarked) [Example 2.3] | 188
18 | CCNC(=O)C(C)c1ccc(O[C@@H]2CCN(c3ccnc(N(C)C4CC4)n3)C2)cc1 (some centres unmarked) [Example 2.5] | 575
19 | CCNC(=O)C(C)c1ccc(O[C@@H]2CCN(c3ccnc(N4CCOCC4)n3)C2)cc1 (some centres unmarked) [Example 2.6] | 808
20 | CC(C(=O)NC1CC1C)c1ccc(O[C@@H]2CCN(c3ncnc(OCC(C)(C)O)c3F)C2)cc1 (some centres unmarked) [Example 3.2] | 259
21 | CC(C(=O)Nc1cccnc1)c1ccc(O[C@@H]2CCN(c3ncnc(OCC(C)(C)O)c3Cl)C2)cc1 (some centres unmarked) [Example 3.5] | 318
22 | CCCNc1ncnc(N2CC[C@@H](Oc3ccc(C(C)C(=O)NCC)cc3)C2)c1F (some centres unmarked) [Example 3.12] | 1030
23 | CCNC(=O)C(C)c1ccc(O[C@@H]2CCN(c3ccc(OCC)cc3)C2)cc1 (stereo partly drawn) [Example 4.1, 2-(4-[1-(4-Ethoxyl-phenyl)-(R)-pyrrolidin-3-yloxy]-phenyl)-N-ethyl-propionamide] | 288
24 | CCNC(=O)C(C)c1ccc(O[C@@H]2CCN(c3ccc(OC4CCC4)cc3)C2)cc1 (stereo partly drawn) [Example 7.1, 2-(4-[1-(4-Cyclobutoxy-phenyl)-(R)-pyrrolidin-3-yloxy]-phenyl)-N-ethyl-propionamide] | 41
25 | CCNC(=O)C(C)c1ccc(O[C@@H]2CCN(c3ccc(OC4CCCC4)cc3)C2)cc1 (some centres unmarked) [Example 7.2] | 72
26 | CCNC(=O)C(C)c1ccc(O[C@@H]2CCN(c3cccc(C(F)(F)F)c3)C2)cc1 (some centres unmarked) [Example 7.4] | 224
27 | CCNC(=O)C(C)c1ccc(O[C@@H]2CCN(c3ccc(OCC4CC4)cc3)C2)cc1 (some centres unmarked) [Example 7.8] | 274
28 | CCNC(=O)C(C)c1ccc(O[C@@H]2CCN(c3cccc(C(F)(F)F)n3)C2)cc1 (some centres unmarked) [Example 7.9] | 315
29 | CCNC(=O)C(C)c1ccc(O[C@@H]2CCN(c3ccc4c(c3)OCCCO4)C2)cc1 (some centres unmarked) [Example 7.10] | 329
30 | CCNC(=O)C(C)c1ccc(O[C@@H]2CCN(c3ccc(OC(C)CC)cc3)C2)cc1 (some centres unmarked) [Example 7.14] | 407

Second part, the molecule after the results:

Row | IC50 [nM] | SMILES
31 | 658 | CC(C(=O)NCC(F)(F)F)c1ccc(O[C@@H]2CCN(c3ncnc(OCC(C)(F)F)c3F)C2)cc1 (some centres unmarked) [Example 1.64]
32 | 687 | CC(C(=O)NC1CCC1)c1ccc(O[C@@H]2CCN(c3ncnc(OCC(C)(F)F)c3F)C2)cc1 (some centres unmarked) [Example 1.66]
33 | 749 | CC(C(=O)Nc1cncnc1)c1ccc(O[C@@H]2CCN(c3ccc(OCC4CC4(F)F)cn3)C2)cc1 (some centres unmarked) [Example 1.70]
34 | 779 | C=CCCNC(=O)C(C)c1ccc(O[C@@H]2CCN(c3ccnc(NCCC)c3F)C2)cc1 (some centres unmarked) [Example 1.71]
35 | 813 | CC(C(=O)NCC(F)(F)F)c1ccc(O[C@@H]2CCN(c3ncnc(OCC(C)(C)O)c3Cl)C2)cc1 (some centres unmarked) [Example 1.74]
36 | 818 | CCCNC(=O)C(C)c1ccc(O[C@@H]2CCN(c3ncnc(OCC(C)(F)F)c3F)C2)cc1 (some centres unmarked) [Example 1.75]
37 | 838 | CC(CO)NC(=O)C(C)c1ccc(O[C@@H]2CCN(c3ncnc(OCC(C)(F)F)c3F)C2)cc1 (some centres unmarked) [Example 1.76]
38 | 849 | CC(CO)NC(=O)C(C)c1ccc(O[C@@H]2CCN(c3nc(N(C)C)ncc3F)C2)cc1 (some centres unmarked) [Example 1.77]
39 | 878 | CC(C(=O)NC1CCC1)c1ccc(O[C@@H]2CCN(c3nc(N(C)C)ncc3F)C2)cc1 (some centres unmarked) [Example 1.78]
40 | 907 | CC(C)CNC(=O)C(C)c1ccc(O[C@@H]2CCN(c3ccc(OCC4CC4(F)F)cn3)C2)cc1 (some centres unmarked) [Example 1.79]
41 | 907 | CC(C)NC(=O)C(C)c1ccc(O[C@@H]2CCN(c3ncnc(OCC(C)(F)F)c3F)C2)cc1 (some centres unmarked) [Example 1.80]
42 | 934 | CC(C)NC(=O)C(C)c1ccc(O[C@@H]2CCN(c3nc(N(C)C)ncc3F)C2)cc1 (some centres unmarked) [Example 1.81]
43 | 1220 | CC(C(=O)NCC1COC1)c1ccc(O[C@@H]2CCN(c3ncnc(OCC(C)(C)O)c3Cl)C2)cc1 (some centres unmarked) [Example 1.85]
44 | 1380 | CC(C(=O)NCCCO)c1ccc(O[C@@H]2CCN(c3ccc(OCC4CC4(F)F)cn3)C2)cc1 (some centres unmarked) [Example 1.86]
45 | 1880 | CC(C(=O)NC[C@H](C)O)c1ccc(O[C@@H]2CCN(c3ccc(OCC4CC4(F)F)cn3)C2)cc1 (some centres unmarked) [Example 1.89]
46 | 2230 | C#CC(C)NC(=O)C(C)c1ccc(O[C@@H]2CCN(c3ccnc(NCCC)c3F)C2)cc1 (some centres unmarked) [Example 1.90]
47 | 2920 | CC(C(=O)NC1CCOCC1)c1ccc(O[C@@H]2CCN(c3ncnc(OCC(C)(C)O)c3Cl)C2)cc1 (some centres unmarked) [Example 1.91]
48 | 3700 | CCCNc1nccc(N2CC[C@@H](Oc3ccc(C(C)C(=O)NCC4CC(F)(F)C4)cc3)C2)c1F (some centres unmarked) [Example 1.92]

Row | IC50 [nM] | SMILES
49 | 95 | CCNC(=O)C(C)c1ccc(O[C@@H]2CCN(c3ccnc(N(CC)CC)n3)C2)cc1 (stereo partly drawn) [Example 2.1, (R)-2-(4-[1-(2-Diethylamino-pyrimidin-4-yl)-pyrrolidin-3-lyoxy]-phenyl)-N-ethyl-propionamide]
50 | 399 | CCNC(=O)C(C)c1ccc(O[C@@H]2CCN(c3ccnc(N4CCC(F)(F)C4)n3)C2)cc1 (some centres unmarked) [Example 2.4]
51 | 235 | CC(C(=O)NC1CC1)c1ccc(O[C@@H]2CCN(c3ncnc(OCC(C)(C)O)c3F)C2)cc1 (stereo partly drawn) [Example 3.1, N-Cyclopropyl-2-(4-(1-[5-fluoro-6-(2-hydroxy-2-methyl-propoxy)-pyrimidin-4-yl]-(R)-pyrrolidin-3-yloxy)-phenyl)-propionamide]
52 | 280 | CCCNc1ncnc(N2CC[C@@H](Oc3ccc(C(C)C(=O)NC4CC4)cc3)C2)c1F (some centres unmarked) [Example 3.3]
53 | 300 | CC(C(=O)Nc1cccc(F)c1)c1ccc(O[C@@H]2CCN(c3nc(N(C)C)ncc3F)C2)cc1 (some centres unmarked) [Example 3.4]
54 | 352 | CC(C(=O)Nc1cccnc1)c1ccc(O[C@@H]2CCN(c3nc(N(C)C)ncc3F)C2)cc1 (some centres unmarked) [Example 3.6]
55 | 613 | CC(C(=O)NCC(F)F)c1ccc(O[C@@H]2CCN(c3ncnc(OCC(C)(C)O)c3F)C2)cc1 (some centres unmarked) [Example 3.7]
56 | 622 | CCNC(=O)C(C)c1ccc(O[C@@H]2CCN(c3ncnc(OCC(C)(C)O)c3F)C2)cc1 (some centres unmarked) [Example 3.8]
57 | 739 | CCCNc1ncnc(N2CC[C@@H](Oc3ccc(C(C)C(=O)NC4CC4C)cc3)C2)c1F (some centres unmarked) [Example 3.9]
58 | 955 | CCCNc1ncnc(N2CC[C@@H](Oc3ccc(C(C)C(=O)NCC(F)F)cc3)C2)c1F (some centres unmarked) [Example 3.10]
59 | 575 | CCNC(=O)C(C)c1ccc(O[C@@H]2CCN(c3ccc(OCC)cc3F)C2)cc1 (some centres unmarked) [Example 4.2]
60 | 1760 | CCNC(=O)C(C)c1ccc(O[C@@H]2CCN(c3ccnc(C4CC4)n3)C2)cc1 (stereo partly drawn) [Example 5, 2-(4-[1-(2-Cyclopropyl-pyrimidin-4-yl)-(R)-pyrrolidin-3-yloxy]-phenyl)-N-ethyl-propionamide]
61 | 190 | CCNC(=O)C(C)c1ccc(O[C@@H]2CCN(c3ccc(OCC4CC4(F)F)cn3)C2)cc1 (some centres unmarked) [Example 7.3]
62 | 225 | CCCOc1ccc(N2CC[C@@H](Oc3ccc(C(C)C(=O)NCC)cc3)C2)c(Cl)c1 (some centres unmarked) [Example 7.5]
63 | 229 | CCNC(=O)C(C)c1ccc(O[C@@H]2CCN(c3ccc(F)c(C(F)(F)F)c3)C2)cc1 (some centres unmarked) [Example 7.6]
64 | 365 | CCNC(=O)C(C)c1ccc(O[C@@H]2CCN(c3cc(C(F)(F)F)ccc3C)C2)cc1 (some centres unmarked) [Example 7.11]
65 | 408 | CCNC(=O)C(C)c1ccc(O[C@@H]2CCN(c3cccc(C(F)F)n3)C2)cc1 (some centres unmarked) [Example 7.15]

Source: patent publication US9278954B2, “Pyrrolidine derivatives, pharmaceutical compositions and uses thereof” (Boehringer Ingelheim International GmbH, priority 2013, dated 2016)
